Test results published in paper PMC5159881 (Nature Communications, 2016).
Several values for one entry are separate records, joined by “and”; a condition that tells them apart may be missing. Equal entries are not always repeated.

Columns and labels:
HSP90 and HSP70 = test: Western blotting of HSP90 and HSP70 protein levels in LNCaP and 22RV1 cells; type: cell-based, human; conditions: 12 h
in vivo = conditions: rat; for half-life: plasma
Experimental: Pharmacokinetic studies in vivo[37] and CYP-associated metabolic studies in vitro[56] were performed using the method reported previously in our laboratory. […] The incubation system, sample preparation and chromatography conditions are as described previously.
A simple and sensitive method for the determination of AIL in plasma was developed, using high-performance liquid chromatography-tandem mass spectrometry (HPLC-MS/MS). Brusatol was used as an internal standard. […] The details of this HPLC-MS/MS method and sample preparation are described in our previous study.
The statistical analysis was performed by SPSS 22.0 software. The differences between control group and experimental groups were determined by one-way analysis of variance. Since treatment and time course was investigated, two-way analysis of variance followed by post hoc test was also applied. Data were expressed as mean and s.d., and P<0.05 was considered significant. Pharmacokinetic parameters were calculated by WinNonlin software version 5.2.1 (Pharsight Corporation, Mountain View, USA) based on noncompartmental analysis. […]
Pharmacokinetic study of ailanthone in rats
Sprague-Dawley rats (purchased from Shanghai SLAC laboratory animal Co. Ltd., Shanghai, China) were fasted for 12 h with free access to water prior to the pharmacokinetic study. The rats were randomized into two groups for oral administration (5mg/kg) and intravenous injection (1mg/kg). Blood samples were collected from the orbital plexus into heparinized centrifuge tubes at fifteen different time points between 5 min to 36 h for the oral administration group and nine time points between 5 min to 6 h for the intravenous one. The pharmacokinetic parameters were calculated by WinNonlin software version 5.2.1 based on noncompartmental analysis. Oral bioavailability was calculated as F (%) = AUC0-∞(p.o.) / AUC0-∞(i.v.) × Dose (i.v.) / Dose (p.o.). […]
Supplementary Figure 9C). […]

LNCaP-MDV3100-R cells = test: SRB cell growth assay, LNCaP-MDV3100-R; type: cell-based, human; conditions: 72 h, 20 μM
Experimental: Cell growth was determined by SRB assay.
the SRB assay (n = 5). The half maximal inhibitory concentration (IC50) was calculated using GraphPad Prism 5.0 (GraphPad, San Diego, CA).

22RV1 xenografts = test: 22RV1 subcutaneous xenograft in BALB/c-nude mice; type: in vivo, mouse; conditions: 10 mg kg^−1 per day BIC or 2 mg kg^−1 per day AIL, i.p.
22RV1 cells = test: SRB cell growth assay, 22RV1; conditions: 22RV1, R1881, 96 h, 10 μM
c4-2b cells = test: SRB cell growth assay, c4-2b; conditions: R1881, 96 h, 10 μM
LNCaP cells = test: SRB cell growth assay, LNCaP; conditions: androgen-starved LNCaP, 0.1 nM R1881, 96 h; 10 μM BIC, 10 μM MDV, 0.1-0.4 μM AIL
LNCaP xenografts = test: LNCaP subcutaneous xenograft in BALB/c-nude mice; type: in vivo, mouse; conditions: 10 mg kg^−1 per day BIC or 2 mg kg^−1 per day AIL, i.p.
Experimental: (§1) (a–c) 22RV1 (a), LNCaP (b) and VCaP (c) cells suspended in 0.1 ml PBS (22RV1) or matrigel (LNCaP, VCaP) were injected into the right flank of BALB/c-nude mice. Androgen containing blocks were subcutaneously inserted into each mouse in the LNCaP and VCaP xenograft models. […] The control group was injected with DMSO. Tumour volume and the mouse body weight were measured twice per week.
(§2) BALB/c-nude mice (6–8-weekold, male) were purchased from the Sino-British Sippr/BK Lab Animal Co., Ltd (Shanghai, China) and maintained under pathogen-free conditions. The animal use protocol was approved by the Institutional Animal Care and Use Committee of East China Normal University. The 22RV1, LNCaP and VCaP xenograft tumour models were developed by injecting 3 × 10^6 22RV1 cells or 5 × 10^6 LNCaP or VCaP cells in suspension into the right flank of a BALB/c-nude mouse; cells were suspended in 100 μl PBS or 50% matrigel (LNCaP and VCaP), respectively. Specifically for LNCaP and VCaP cells, continuous release testosterone pellets (15 mg testosterone per pellet, Sigma-Aldrich) were implanted subcutaneously to stimulate the growth of LNCaP and VCaP xenografts. […] The tumour volume and mouse body weight were measured twice a week. The tumour volume was calculated using the following equation: tumour volume (V)=length × width × width × 0.52. […]
(§3) Tumor volume and the mouse body weight were measured once a week. […]

AR protein = test: Western blotting of AR protein level in PCa cell lines; type: cell-based, human; conditions: LNCaP, 22RV1, LNCaP-MDV3100-R and VCaP cell lines (CEL: LNCaP and 22RV1, 12 h)
From the text: Scale bars, 10 μm. […] Scale bars, 20 μm.

PSA mRNA = test: Quantitative-PCR of PSA mRNA in 22RV1 cells; conditions: 12 h
Experimental: Total RNA was extracted using TRIzol (Takara, Japan) according to the manufacturer's instructions. One microgram of total RNA was used for complementary DNA synthesis using a cDNA reverse transcription kit (Takara, Japan). Real-time PCR was performed in triplicate using gene-specific primers on a Stratagene Mx3005P PCR system (Agilent Technologies) machine. The mRNA expression levels were normalized to β-actin expression or GAPDH.

[1] = system: 22RV1-luc orthotopic xenografts; test: Orthotopic castration-resistant prostate cancer model (22RV1-luc, castrated mice); type: in vivo, mouse; conditions: i.p. once per day, 28 days, AIL 2 mg kg^−1 (95% CI 70–95%), MDV 10 mg kg^−1 (95% CI 0–36%)
Experimental: (d) Male BALB/c-nude mice were anaesthetized, and the dorsolateral prostate was injected with 22RV1-luc cells in matrigel. […] Tumours were imaged every week to determine local tumour growth and evidence of tumour cell dissemination. Representative images of three mice per group were illustrated (n=5). (e) After 28 days, mice were killed and local tumours and viscera of the mice were imaged to determine tumour growth and evidence of tumour cell dissemination.
For orthotopic castration-resistant prostate cancer xenografts, male BALB/c-nude mice (8–9 weeks of age) were anaesthetized using 150 mg kg^−1 2, 2, 2-tribromethanol plus 350 mg kg^−1 tert-amyl alcohol and then 5 × 10^5 22RV1-luc cells suspended in 30 μl 50% matrigel were surgically injected into the dorsolateral prostate lobes. One week after injection, the tumour-bearing mice were castrated and randomly assigned to three groups. […] Prostate tumour growth and local metastasis were monitored weekly using the IVIS Imaging System (Xenogen Corporation, Alameda, CA). Images and measurements of bioluminescent signals were acquired and analysed using Living Image and Xenogen software[52].

VCaP xenografts = test: VCaP subcutaneous xenograft in BALB/c-nude mice; type: in vivo, mouse; conditions: 2 mg/kg AIL or 10 mg/kg MDV, i.p.
Experimental: as §1, §2, §3

[2] = Sprague-Dawley, in vivo, iv, 1 mg/kg
[3] = Sprague-Dawley, in vivo, po, 5 mg/kg

C=CCNC1=C2C[C@@H](C)C[C@H](OC)[C@H](O)[C@@H](C)/C=C(\C)[C@H](OC(N)=O)[C@@H](OC)/C=C\C=C(/C)C(=O)NC(=CC1=O)C2=O [17-AAG]
HSP90 and HSP70 protein levels (HSP90 and HSP70): induced upregulation

C=C1[C@@H](O)[C@]2(O)OC[C@]34[C@H]2[C@@]2(C)[C@H](O)C(=O)C=C(C)[C@@H]2C[C@H]3OC(=O)C[C@@H]14 [AIL, Ailanthone]
bioavailability (in vivo; Sprague-Dawley, in vivo): 25.7% | AUC(0-inf) (in vivo; [2]): 1030 ng·h/mL | AUC(0-t) (in vivo; [2]): 965 ng·h/mL | C0 (in vivo; [2]): 1650 ng/mL and 4.39 µM | AUC(0-inf) (in vivo; [3]): 1320 ng·h/mL | AUC(0-t) (in vivo; [3]): 1120 ng·h/mL | Cmax (in vivo; [3]): 87 ng/mL and 231 nM | Tmax (in vivo; [3]): 0.388 h | half-life (in vivo; iv, i.v. 1 mg kg^−1, n=6, mean±s.d.): 1.89 ± 0.66 h | half-life (in vivo; po, p.o. 5 mg kg^−1, n=6, mean±s.d.): 12.2 ± 2.6 h

CC(O)(CS(=O)(=O)c1ccc(F)cc1)C(=O)Nc1ccc(C#N)c(C(F)(F)F)c1 (centres unmarked) [BIC, bicalutamide]
cell growth (SRB) (LNCaP-MDV3100-R cells): totally resistant | tumour growth (22RV1 xenografts): resistant | cell growth (SRB) (22RV1 cells): could not significantly inhibit cell growth | cell growth (SRB) (c4-2b cells): could not significantly inhibit cell growth | cell growth (SRB) (LNCaP cells): effectively blocked cell growth | tumour volume (LNCaP xenografts): significantly reduced the tumour volume

CC1=C(O)C(=O)C=C2C1=CC=C1[C@@]2(C)CC[C@@]2(C)[C@@H]3C[C@](C)(C(=O)O)CC[C@]3(C)CC[C@]12C [CEL, Celastrol]
AR protein level (AR protein): downregulated the protein level of AR

CNC(=O)c1ccc(N2C(=S)N(c3ccc(C#N)c(C(F)(F)F)c3)C(=O)C2(C)C)cc1F [MDV, MDV3100]
cell growth (SRB) (LNCaP-MDV3100-R cells): totally resistant | PSA mRNA level in the presence of R1881 (PSA mRNA; 22RV1, 10 nM R1881, 10 μM MDV or 0.2 μM AIL): decreased | PSA mRNA level in the absence of R1881 (PSA mRNA; 22RV1, no R1881, 10 μM MDV or 0.2 μM AIL): no effect | cell growth (SRB) (22RV1 cells): could not significantly inhibit cell growth | cell growth (SRB) (c4-2b cells): could not significantly inhibit cell growth | reduction of tumour volume [1]: 15% | response of xenografts (VCaP xenografts): still responded | cell growth (SRB) (LNCaP cells): effectively blocked cell growth
